System: P12-Ichikawa
Test: cell viability relative to DMSO control; higher = less cytotoxic
Conditions: 48 h
In short: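 Before seeding, each leukemia line was adapted for at least four passages in each medium. NOMO1 or SEM cells (500 cells/well) and P12-Ichikawa cells (1000 cells/well) went into 1536-well plates at 5 μl, then received library compounds in DMSO by pin dosing across 11 threefold concentrations, 47 μM to 0.79 nM. Readout was CellTiter-Glo One luminescence after 48 h at 37°C, and viability is given as a per-plate percentage of DMSO wells, with cell-free wells as background.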

[1] = HPLM + 10% dialyzed FBS, 0.000781 µM
[2] = HPLM + 10% dialyzed FBS, 0.00234 µM
[3] = HPLM + 10% dialyzed FBS, 0.00702 µM
[4] = HPLM + 10% dialyzed FBS, 0.0211 µM
[5] = HPLM + 10% dialyzed FBS, 0.0632 µM
[6] = HPLM + 10% dialyzed FBS, 0.19 µM
[7] = HPLM + 10% dialyzed FBS, 0.569 µM
[8] = HPLM + 10% dialyzed FBS, 1.71 µM
[9] = HPLM + 10% dialyzed FBS, 5.12 µM
[10] = HPLM + 10% dialyzed FBS, 15.4 µM
[11] = HPLM + 10% dialyzed FBS, 46.1 µM
[12] = RPMI 5 mM glucose + 10% FBS, 0.000781 µM
[13] = RPMI 5 mM glucose + 10% FBS, 0.00234 µM
[14] = RPMI 5 mM glucose + 10% FBS, 0.00702 µM
[15] = RPMI 5 mM glucose + 10% FBS, 0.0211 µM
[16] = RPMI 5 mM glucose + 10% FBS, 0.0632 µM
[17] = RPMI 5 mM glucose + 10% FBS, 0.19 µM
[18] = RPMI 5 mM glucose + 10% FBS, 0.569 µM
[19] = RPMI 5 mM glucose + 10% FBS, 1.71 µM
[20] = RPMI 5 mM glucose + 10% FBS, 5.12 µM
[21] = RPMI 5 mM glucose + 10% FBS, 15.4 µM
[22] = RPMI 5 mM glucose + 10% FBS, 46.1 µM
[23] = RPMI 5 mM glucose + 10% dialyzed FBS, 0.000781 µM
[24] = RPMI 5 mM glucose + 10% dialyzed FBS, 0.00234 µM
[25] = RPMI 5 mM glucose + 10% dialyzed FBS, 0.00702 µM
[26] = RPMI 5 mM glucose + 10% dialyzed FBS, 0.0211 µM
[27] = RPMI 5 mM glucose + 10% dialyzed FBS, 0.0632 µM
[28] = RPMI 5 mM glucose + 10% dialyzed FBS, 0.19 µM
[29] = RPMI 5 mM glucose + 10% dialyzed FBS, 0.569 µM
[30] = RPMI 5 mM glucose + 10% dialyzed FBS, 1.71 µM
[31] = RPMI 5 mM glucose + 10% dialyzed FBS, 5.12 µM
[32] = RPMI 5 mM glucose + 10% dialyzed FBS, 15.4 µM
[33] = RPMI 5 mM glucose + 10% dialyzed FBS, 46.1 µM

| SMILES | cell viability [1] [%] | cell viability [2] [%] | cell viability [3] [%] | cell viability [4] [%] | cell viability [5] [%] | cell viability [6] [%] | cell viability [7] [%] | cell viability [8] [%] | cell viability [9] [%] | cell viability [10] [%] | cell viability [11] [%] | cell viability [12] [%] | cell viability [13] [%] | cell viability [14] [%] | cell viability [15] [%] | cell viability [16] [%] | cell viability [17] [%] | cell viability [18] [%] | cell viability [19] [%] | cell viability [20] [%] | cell viability [21] [%] | cell viability [22] [%] | cell viability [23] [%] | cell viability [24] [%] | cell viability [25] [%] | cell viability [26] [%] | cell viability [27] [%] | cell viability [28] [%] | cell viability [29] [%] | cell viability [30] [%] | cell viability [31] [%] | cell viability [32] [%] | cell viability [33] [%] |
| --- | --- | --- | --- | --- | --- | --- | --- | --- | --- | --- | --- | --- | --- | --- | --- | --- | --- | --- | --- | --- | --- | --- | --- | --- | --- | --- | --- | --- | --- | --- | --- | --- | --- |
| CN1CCN2c3ncccc3Cc3ccccc3C2C1 (stereo not drawn) | 122 | 119 | 113 | 120 | 122 | 115 | 114 | 119 | 114 | 108 | 111 | 134 | 118 | 124 | 132 | 129 | 125 | 135 | 121 | 117 | 112 | 101 | 125 | 118 | 113 | 120 | 121 | 118 | 128 | 115 | 111 | 108 | 100 |
| CCN(C(=O)C/1=C(O)/C2=C(C=CC=C2Cl)N(C)C1=O)C3=CC=CC=C3 | 93.7 | 100 | 98.1 | 102 | 97.9 | 93.2 | 95.9 | 77.6 | 31.8 | 2.09 | 3.36 | 90.3 | 97 | 98.7 | 105 | 88.8 | 77.5 | 82.7 | 52.7 | 25.4 | 1.95 | 2.3 | 85.2 | 91.3 | 91.5 | 96.4 | 99.6 | 78.5 | 82.8 | 46.1 | 16.3 | 2.21 | 3.11 |
| CC[C@H](C)C(=O)O[C@H]1C[C@H](O)\C=C2\C=C/[C@H](C)[C@H](CC[C@@H](O)C[C@@H](O)CC(O)=O)[C@@H]12 | 112 | 116 | 105 | 112 | 111 | 109 | 107 | 97.1 | 98.2 | 96.1 | 86.7 | 107 | 106 | 107 | 113 | 116 | 110 | 106 | 104 | 98.1 | 98.9 | 96.5 | 114 | 102 | 109 | 109 | 111 | 117 | 106 | 106 | 105 | 101 | 92.1 |
| COCCOc1nc(-c2ccc(Cl)c(Cl)c2)n(-c2ccc(NC(=O)CCl)cc2)n1 | 96.6 | 97.3 | 102 | 103 | 103 | 106 | 99.1 | 104 | 84.4 | 99.8 | 98.5 | 89.4 | 101 | 90.1 | 104 | 98.9 | 101 | 93.4 | 107 | 79.7 | 79.9 | 88.7 | 84.1 | 92.2 | 86.1 | 94.6 | 91.2 | 93.7 | 98.9 | 86.4 | 76 | 77.8 | 86.9 |
| CC[C@@]1(O)C(=O)OCC/2=C1/C=C3\N(CC4=CC5=CC(=CC=C5N=C34)O)C2=O | – | – | – | – | – | – | – | – | – | – | – | 122 | 120 | 117 | 91.5 | 11.4 | 9.55 | 8.05 | 7.2 | 6.2 | 5.86 | 6.96 | 115 | 127 | 106 | 88.7 | 16.9 | 12.1 | 10.2 | 6.53 | 6.88 | 6.54 | 8.98 |
| CC(/C=C/C(=O)NO)=C\[C@@H](C)C(=O)c1ccc(N(C)C)cc1 | 111 | 115 | 114 | 107 | 109 | 114 | 90.5 | 48.4 | 3.82 | 1.6 | 0.388 | 116 | 116 | 119 | 114 | 119 | 111 | 98.3 | 28.3 | 2.14 | 1.05 | 0.409 | 107 | 113 | 109 | 116 | 110 | 107 | 91.8 | 29.8 | 2.07 | 1.68 | 0.629 |
| CC1(C)CNc2cc(NC(=O)c3cccnc3NCc3ccncc3)ccc21 | 120 | 115 | 125 | 121 | 128 | 116 | 117 | 118 | 112 | 110 | 101 | 127 | 117 | 122 | 116 | 115 | 106 | 119 | 117 | 111 | 105 | 107 | 121 | 124 | 128 | 121 | 120 | 120 | 123 | 112 | 113 | 113 | 96.1 |
| Nc1cccc2c1CN([C@H]1CCC(=O)NC1=O)C2=O | 115 | 112 | 114 | 117 | 109 | 114 | 107 | 103 | 107 | 88.8 | 96.7 | 109 | 124 | 118 | 118 | 124 | 113 | 116 | 99.6 | 114 | 80.8 | 92.7 | 112 | 114 | 105 | 107 | 107 | 107 | 97.4 | 102 | 94.8 | 63.3 | 80.8 |
